# Patent US10689378B2, “Triazolopyridine compounds and uses thereof” (Novartis AG, priority 2016, dated 2020)
# Read-outs that look alike come from different tables or passages of the source.
# Columns and labels:
# [1] = target: wild type PRC2 (wtPRC2) complex (Homo sapiens, UniProt O75530); test: EED LC-MS assay (SAH production by PRC2); assay type: biochemical
# Method in brief: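 Pentameric PRC2 (EZH2, SUZ12, EED, Rbap48, AEBP), 12 nM final, preincubated 20 min with compound and SAM, then 1.5 μM biotinylated H3K27me0 peptide, 1 μM SAM, pH 8.0, 120 min at rt. SAH quantified by LC-MS/MS with d4-SAH; control-normalized activity fitted for IC50.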
# EED (1-441)-His protein = target: T1, EED (1-441)-His protein (Homo sapiens, UniProt O75530); test: EED-H3K27Me3 peptide competition binding assay by AlphaScreen
# T1 construct: 30 nM EED (1-441)-His protein
# Method in brief: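 Serially diluted compound (12 points, 3-fold) incubated 20 min with 30 nM EED(1-441)-His and 15 nM biotin-H3K27Me3(19-33) peptide in 25 mM HEPES pH 8, 0.02% Tween-20, 0.5% BSA. Ni-chelate acceptor/streptavidin donor beads (10 μg/mL each) added, 1 h rt dark; 615 nm emission normalized to controls, dose-response fit for IC50.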
# [2] = tested on: H3K27 methylation in G401 cell; test: ELISA (H3K27 methylation) assay in G401 cells; assay type: cell-based, human; conditions: Homo sapiens
# Method in brief: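 G401 cells treated 48 h with 3-fold dilutions (8 or 12 points, top 20 μM). Acid-extracted histones probed by ELISA for H3K27me3 or H3K27me2 with ECL readout, normalized to total H3. Percent inhibition versus DMSO fitted to dose-response curve for IC50.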
# [3] = read-out: (b) IC50 EED LC-MS Qualified
# [4] = read-out: (a) IC50 EED Alphascreen binding Qualified
# [5] = G-401, read-out: (c) IC50 ELISA Qualified
# [6] = PRC2 LC-MS assay, read-out: (b) IC50 EED LC-MS Qualified
# [7] = EED-H3K27Me3 peptide competition, AlphaScreen, read-out: (a) IC50 EED Alphascreen binding Qualified
# [8] = G-401, H3K27 methylation ELISA, read-out: (c) IC50 ELISA Qualified
# [9] = read-out: (b) IC50, EED LC-MS Qualified
# [10] = read-out: (a) IC50, EED Alphascreen binding Qualified
# [11] = G-401, read-out: (c) IC50, ELISA Qualified
# T1 sequence (O75530 whole entry): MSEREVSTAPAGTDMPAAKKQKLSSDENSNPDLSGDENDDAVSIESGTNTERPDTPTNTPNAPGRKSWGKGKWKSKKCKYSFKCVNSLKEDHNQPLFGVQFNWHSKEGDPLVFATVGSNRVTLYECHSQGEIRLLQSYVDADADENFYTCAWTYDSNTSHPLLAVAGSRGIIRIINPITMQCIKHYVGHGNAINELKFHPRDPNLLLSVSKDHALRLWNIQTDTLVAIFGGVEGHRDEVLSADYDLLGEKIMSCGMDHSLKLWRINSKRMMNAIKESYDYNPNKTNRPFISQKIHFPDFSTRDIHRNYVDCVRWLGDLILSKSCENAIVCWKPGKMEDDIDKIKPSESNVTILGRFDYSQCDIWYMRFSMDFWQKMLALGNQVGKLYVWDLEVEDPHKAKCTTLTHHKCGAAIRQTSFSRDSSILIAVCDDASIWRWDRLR
# wild type PRC2 (wtPRC2) complex, sequence (O75530 whole entry): as above
# wild type PRC2 (wtPRC2) complex, sequence (Q15910 whole entry partner): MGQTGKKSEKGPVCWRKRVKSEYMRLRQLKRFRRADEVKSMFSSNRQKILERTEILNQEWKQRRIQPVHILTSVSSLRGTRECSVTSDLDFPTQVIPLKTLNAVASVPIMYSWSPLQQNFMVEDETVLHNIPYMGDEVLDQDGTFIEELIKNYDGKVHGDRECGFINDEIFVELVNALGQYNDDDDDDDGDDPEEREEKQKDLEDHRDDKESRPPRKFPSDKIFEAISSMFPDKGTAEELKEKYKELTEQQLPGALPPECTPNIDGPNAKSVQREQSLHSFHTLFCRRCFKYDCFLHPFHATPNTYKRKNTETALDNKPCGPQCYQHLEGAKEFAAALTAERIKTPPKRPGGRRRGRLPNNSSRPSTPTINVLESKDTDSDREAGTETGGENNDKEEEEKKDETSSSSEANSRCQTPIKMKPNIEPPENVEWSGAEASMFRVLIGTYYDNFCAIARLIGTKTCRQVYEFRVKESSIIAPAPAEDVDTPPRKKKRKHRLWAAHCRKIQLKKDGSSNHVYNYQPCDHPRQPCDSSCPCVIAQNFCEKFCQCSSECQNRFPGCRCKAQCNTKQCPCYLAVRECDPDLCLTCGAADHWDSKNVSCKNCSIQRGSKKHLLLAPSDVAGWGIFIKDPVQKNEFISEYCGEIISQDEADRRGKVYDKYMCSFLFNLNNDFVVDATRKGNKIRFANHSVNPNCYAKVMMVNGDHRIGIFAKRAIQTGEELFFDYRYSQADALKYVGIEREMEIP
# wild type PRC2 (wtPRC2) complex, sequence (Q15022 whole entry partner): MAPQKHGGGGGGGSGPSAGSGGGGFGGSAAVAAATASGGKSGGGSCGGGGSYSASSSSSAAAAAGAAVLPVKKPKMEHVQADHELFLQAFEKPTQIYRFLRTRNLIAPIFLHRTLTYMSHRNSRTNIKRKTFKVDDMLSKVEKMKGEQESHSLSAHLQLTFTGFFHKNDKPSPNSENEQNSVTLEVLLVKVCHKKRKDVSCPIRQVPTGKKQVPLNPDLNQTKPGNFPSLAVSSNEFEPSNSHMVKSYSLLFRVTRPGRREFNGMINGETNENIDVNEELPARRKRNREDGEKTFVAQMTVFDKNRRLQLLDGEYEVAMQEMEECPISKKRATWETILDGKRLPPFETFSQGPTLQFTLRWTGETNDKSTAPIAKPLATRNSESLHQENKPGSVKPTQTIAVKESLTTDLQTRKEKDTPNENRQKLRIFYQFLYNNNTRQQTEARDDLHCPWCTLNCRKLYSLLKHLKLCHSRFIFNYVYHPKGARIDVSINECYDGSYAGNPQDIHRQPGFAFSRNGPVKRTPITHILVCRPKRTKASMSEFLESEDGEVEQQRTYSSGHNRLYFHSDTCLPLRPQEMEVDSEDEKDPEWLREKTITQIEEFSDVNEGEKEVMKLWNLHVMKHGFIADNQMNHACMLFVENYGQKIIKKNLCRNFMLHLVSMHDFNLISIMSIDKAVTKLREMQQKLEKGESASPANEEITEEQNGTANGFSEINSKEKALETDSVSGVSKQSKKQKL
# wild type PRC2 (wtPRC2) complex, sequence (Q09028 whole entry partner): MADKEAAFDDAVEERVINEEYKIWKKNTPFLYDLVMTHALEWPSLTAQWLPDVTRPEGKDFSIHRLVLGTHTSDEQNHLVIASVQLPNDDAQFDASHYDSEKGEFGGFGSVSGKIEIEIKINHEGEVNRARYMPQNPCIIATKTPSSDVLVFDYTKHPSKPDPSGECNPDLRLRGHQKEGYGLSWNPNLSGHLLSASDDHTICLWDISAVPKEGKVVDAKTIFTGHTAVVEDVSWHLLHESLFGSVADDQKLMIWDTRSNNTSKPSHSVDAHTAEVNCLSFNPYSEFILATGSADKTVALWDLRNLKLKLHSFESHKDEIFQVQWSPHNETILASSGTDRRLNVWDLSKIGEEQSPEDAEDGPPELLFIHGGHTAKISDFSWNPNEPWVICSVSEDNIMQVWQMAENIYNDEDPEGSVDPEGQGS
# wild type PRC2 (wtPRC2) complex, sequence (Q6ZN18 whole entry partner): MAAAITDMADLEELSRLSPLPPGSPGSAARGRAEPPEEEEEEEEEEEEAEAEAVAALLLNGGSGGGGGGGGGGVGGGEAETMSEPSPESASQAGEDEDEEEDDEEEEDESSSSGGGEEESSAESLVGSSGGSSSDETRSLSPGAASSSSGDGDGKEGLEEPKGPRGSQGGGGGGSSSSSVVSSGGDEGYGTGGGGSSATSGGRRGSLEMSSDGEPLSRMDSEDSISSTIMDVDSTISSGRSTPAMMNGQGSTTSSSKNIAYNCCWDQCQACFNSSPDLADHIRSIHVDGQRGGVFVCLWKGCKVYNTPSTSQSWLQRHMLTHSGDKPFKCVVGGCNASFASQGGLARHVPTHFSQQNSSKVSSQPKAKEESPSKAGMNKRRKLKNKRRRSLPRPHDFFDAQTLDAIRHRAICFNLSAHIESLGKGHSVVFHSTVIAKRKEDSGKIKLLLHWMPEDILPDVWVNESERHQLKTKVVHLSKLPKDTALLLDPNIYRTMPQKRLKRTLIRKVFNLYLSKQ
Structure (SMILES),"IC50 [1, 6]",IC50 (EED (1-441)-His protein; [7]),"IC50 [2, 8]","IC50 [1, 9]",IC50 (EED (1-441)-His protein; [10]),"IC50 [2, 11]",further results
"COc1cc(F)cc(F)c1CNc1ccc(-c2cnc(OC(C)C)nc2C)c2nncn12 [Example 349, N-(2,4-difluoro-6-methoxybenzyl)-8-(2-isopropoxy-4-methylpyrimidin-5-yl)-[1,2,4]triazolo[4,3-a]pyridin-5-amine]",–,–,–,–,–,–,"IC50 [1, 3]: 291 nM; IC50 (EED (1-441)-His protein; [4]): 22.9 nM; IC50 [2, 5]: 31.2 nM"
"COc1cccc(F)c1CNc1ccc(-n2ccnc2C)c2nncn12 [Example 362, N-(2-fluoro-6-methoxybenzyl)-8-(2-methyl-1H-imidazol-1-yl)-[1,2,4]triazolo [4,3-a]pyridin-5-amine]",–,–,–,–,–,–,"IC50 [1, 3]: 33.4 nM; IC50 (EED (1-441)-His protein; [4]): 39.8 nM; IC50 [2, 5]: 17 nM"
"COc1cc(F)cc(F)c1CNc1ccc(-c2c(C)noc2C)c2nncn12 [Example 227, N-(2,4-difluoro-6-methoxybenzyl)-8-(3,5-dimethylisoxazol-4-yl)-[1,2,4] triazolo[4,3-a]pyridin-5-amine]",131 nM,45.5 nM,40.2 nM,–,–,–,–
"COc1cccc(F)c1CNc1ccc(-c2ccc(S(=O)(=O)C3CCN(C)CC3)cc2)c2nncn12 [Example 133, N-(2-fluoro-6-methoxybenzyl)-8-(4-((1-methylpiperidin-4-yl)sulfonyl)phenyl)-[1,2,4]triazolo[4,3-a] pyridin-5-amine]",–,–,–,65.8 nM,5 nM,5.3 nM,–
"COc1cccc(F)c1CNc1ccc(-c2ccc(CCC(=O)N(C)C)nc2)c2nncn12 [Example 234, 3-(5-(5-((2-fluoro-6-methoxybenzyl)amino)-[1,2,4]triazolo[4,3-a]pyridin-8-yl)pyridin-2-yl)-N,N-dimethyl propanamide]",149 nM,35 nM,26.3 nM,–,–,–,–
"COc1cc(F)cc(F)c1CNc1ccc(-c2ccncc2C)c2nncn12 [Example 297, N-(2,4-difluoro-6-methoxybenzyl)-8-(3-methylpyridin-4-yl)-[1,2,4]triazolo[4,3-a] pyridin-5-amine]",618 nM,42.3 nM,17.5 nM,–,–,–,–
"COc1ccccc1CNc1ccc(-c2ccc(C(N)=O)c(Cl)c2)c2nncn12 [Example 64, 2-chloro-4-(5-((2-methoxybenzyl)amino)-[1,2,4]triazolo[4,3-a]pyridin-8-yl) benzamide]",–,–,–,914 nM,31.7 nM,126 nM,–
"COc1cccc(F)c1CNc1ccc(-c2ccnc(C(F)F)c2C)c2nncn12 [Example 277, 8-(2-(difluoromethyl)-3-methylpyridin-4-yl)-N-(2-fluoro-6-methoxybenzyl)-[1,2,4]triazolo[4,3-a]pyridin-5-amine]",32.2 nM,14.2 nM,12 nM,–,–,–,–
"COc1ccccc1CNc1ccc(-c2ccc(N3CCN(C)CC3)nc2)c2nncn12 [Example 21, N-(2-methoxybenzyl)-8-(6-(4-methylpiperazin-1-yl)pyridin-3-yl)-[1,2,4] triazolo[4,3-a]pyridin-5-amine]",–,–,–,1060 nM,124 nM,234 nM,–
"COc1cc(F)ccc1CNc1ccc(-c2ccc(CN(C)C)cc2)c2nncn12 [Example 33, 8-(4-((dimethylamino)methyl)phenyl)-N-(4-fluoro-2-methoxybenzyl)-[1,2,4] triazolo[4,3-a]pyridin-5-amine]",–,–,–,294 nM,84.2 nM,277 nM,–
"COc1ccccc1CNc1ccc(-c2cnc(N3CCN(C)CC3)c(C)c2)c2nncn12 [Example 20, N-(2-methoxybenzyl)-8-(5-methyl-6-(4-methylpiperazin-1-yl)pyridin-3-yl)-[1,2,4]triazolo[4,3-a]pyridin-5-amine]",–,–,–,248 nM,79 nM,185 nM,–
"COc1cccc(F)c1CNc1ccc(-c2cc(C#N)cnc2C)c2nncn12 [Example 350, 5-(5-((2-fluoro-6-methoxybenzyl)amino)-[1,2,4]triazolo[4,3-a]pyridin-8-yl)-6-methylnicotinonitrile]",–,–,–,–,–,–,"IC50 [1, 3]: 45.4 nM; IC50 (EED (1-441)-His protein; [4]): 32.2 nM; IC50 [2, 5]: 16.4 nM"
"COc1cccc(F)c1CNc1ccc(-c2ccc(C(C)O)nc2)c2nncn12 (stereo not drawn) [Example 205, 1-(5-(5-((2-fluoro-6-methoxybenzyl)amino)-[1,2,4]triazolo[4,3-a]pyridin-8-yl)pyridin-2-yl)ethanol]",160 nM,53.1 nM,43.7 nM,–,–,–,–
"COc1ccccc1CNc1ccc(-c2cc(F)c(CN(C)C)c(F)c2)c2nncn12 [Example 43, 8-(4-((dimethylamino)methyl)-3,5-difluorophenyl)-N-(2-methoxybenzyl)-[1,2,4] triazolo[4,3-a]pyridin-5-amine]",–,–,–,785 nM,9.5 nM,3.8 nM,–
"COc1cccc(F)c1CNc1ccc(-c2cncc(F)c2)c2nncn12 [Example 158, N-(2-fluoro-6-methoxybenzyl)-8-(5-fluoropyridin-3-yl)-[1,2,4]triazolo[4,3-a] pyridin-5-amine]",–,–,–,38.9 nM,13.8 nM,19.6 nM,–
"COc1ccccc1CNc1ccc(-c2ccc(N3CCN(C)CC3)cc2)c2nncn12 [Example 22, N-(2-methoxybenzyl)-8-(4-(4-methylpiperazin-1-yl)phenyl)-[1,2,4]triazolo[4,3-a] pyridin-5-amine]",–,–,–,365 nM,56.2 nM,42.3 nM,–
"COc1ccccc1CNc1ccc(-c2ccc(N3CC(C)N(C)CC3C)nc2)c2nncn12 (stereo not drawn) [Example 168, N-(2-methoxybenzyl)-8-(6-(2,4,5-trimethylpiperazin-1-yl)pyridin-3-yl)-[1,2,4] triazolo[4,3-a]pyridin-5-amine]",–,–,–,168 nM,50.5 nM,105 nM,–
"COc1cccc(F)c1CNc1ccc(-c2cncc(F)c2C)c2nncn12 [Example 219, 8-(5-fluoro-4-methylpyridin-3-yl)-N-(2-fluoro-6-methoxybenzyl)-[1,2,4]triazolo[4,3-a] pyridin-5-amine]",213 nM,29.1 nM,26.7 nM,–,–,–,–
"COc1cccc(F)c1CNc1ccc(-c2cnc(OC(F)F)cc2C)c2nncn12 [Example 304, 8-(6-(difluoromethoxy)-4-methylpyridin-3-yl)-N-(2-fluoro-6-methoxybenzyl)-[1,2,4]triazolo[4,3-a]pyridin-5-amine]",48.3 nM,26.6 nM,18 nM,–,–,–,–
"COc1cccc(F)c1CNc1ccc(-c2cnccc2C(F)F)c2nncn12 [Example 258, 8-(4-(difluoromethyl)pyridin-3-yl)-N-(2-fluoro-6-methoxybenzyl)-[1,2,4] triazolo [4,3-a]pyridin-5-amine]",71.6 nM,24.5 nM,16.7 nM,–,–,–,–
"COc1ccccc1CNc1ccc(-c2cccc(CN(C)C)c2)c2nncn12 [Example 28, 8-(3-((dimethylamino)methyl)phenyl)-N-(2-methoxybenzyl)-[1,2,4] triazolo[4,3-a]pyridin-5-amine]",–,–,–,291 nM,37.9 nM,54 nM,–
"COc1cccc(F)c1CNc1ccc(-c2cccnc2C(F)F)c2nncn12 [Example 265, 8-(2-(difluoromethyl)pyridin-3-yl)-N-(2-fluoro-6-methoxybenzyl)-[1,2,4] triazolo[4,3-a]pyridin-5-amine]",6.3 nM,14.1 nM,7.1 nM,–,–,–,–
"COc1cccc(F)c1CNc1ccc(-c2nnc(C)o2)c2nncn12 [Example 9, N-(2-Fluoro-6-methoxybenzyl)-8-(5-methyl-1,3,4-oxadiazol-2-yl)-[1,2,4]triazolo[4,3-a]pyridin-5-amine]",–,–,–,62.4 nM,33.9 nM,2.4 nM,–
"COc1cccc(F)c1CNc1ccc(-c2c(C)n[nH]c2C)c2nncn12 [Example 187, 8-(3,5-dimethyl-1H-pyrazol-4-yl)-N-(2-fluoro-6-methoxybenzyl)-[1,2,4]triazolo[4,3-a] pyridin-5-amine]",172 nM,41.6 nM,52.8 nM,–,–,–,–
"COc1cccc(F)c1CNc1ccc(-c2ccc(O)nc2C)c2nncn12 [Example 309, 5-(5-((2-fluoro-6-methoxybenzyl)amino)-[1,2,4]triazolo[4,3-a]pyridin-8-yl)-6-methylpyridin-2-ol]",60.6 nM,15.8 nM,11.6 nM,–,–,–,–
"CCc1ncccc1-c1ccc(NCc2c(F)cccc2OC)n2cnnc12 [Example 283, 8-(2-ethylpyridin-3-yl)-N-(2-fluoro-6-methoxybenzyl)-[1,2,4]triazolo[4,3-a]pyridin-5-amine]",576 nM,39.6 nM,62.1 nM,–,–,–,–
"COc1cccc(F)c1CNc1ccc(-c2ccc(S(C)(=O)=O)nc2)c2nncn12 [Example 112, N-(2-fluoro-6-methoxybenzyl)-8-(6-(methylsulfonyl)pyridin-3-yl)-[1,2,4]triazolo[4,3-a] pyridin-5-amine]",–,–,–,256 nM,9.8 nM,4.9 nM,–
